Results on 14 compounds are retold here after patent US20090215758A1, “Use of 2,5-Disubstituted Thiazol-4-One Derivatives in Drugs” (Gruenenthal GmbH, priority 2005, published 2009).

Counter-ions that a name gives are not always drawn. Some results are limits rather than exact numbers.

The target of experiment [1] is T1, vanilloid receptor 1 (VR1/TRPV1) of the rat species (Rattus norvegicus, UniProt O35433).
T1 construct: The spinal column is removed from beheaded rats; from tissue; host or cells: primary cells from rat dorsal root ganglia (DRGs)
T1 sequence (O35433 whole entry): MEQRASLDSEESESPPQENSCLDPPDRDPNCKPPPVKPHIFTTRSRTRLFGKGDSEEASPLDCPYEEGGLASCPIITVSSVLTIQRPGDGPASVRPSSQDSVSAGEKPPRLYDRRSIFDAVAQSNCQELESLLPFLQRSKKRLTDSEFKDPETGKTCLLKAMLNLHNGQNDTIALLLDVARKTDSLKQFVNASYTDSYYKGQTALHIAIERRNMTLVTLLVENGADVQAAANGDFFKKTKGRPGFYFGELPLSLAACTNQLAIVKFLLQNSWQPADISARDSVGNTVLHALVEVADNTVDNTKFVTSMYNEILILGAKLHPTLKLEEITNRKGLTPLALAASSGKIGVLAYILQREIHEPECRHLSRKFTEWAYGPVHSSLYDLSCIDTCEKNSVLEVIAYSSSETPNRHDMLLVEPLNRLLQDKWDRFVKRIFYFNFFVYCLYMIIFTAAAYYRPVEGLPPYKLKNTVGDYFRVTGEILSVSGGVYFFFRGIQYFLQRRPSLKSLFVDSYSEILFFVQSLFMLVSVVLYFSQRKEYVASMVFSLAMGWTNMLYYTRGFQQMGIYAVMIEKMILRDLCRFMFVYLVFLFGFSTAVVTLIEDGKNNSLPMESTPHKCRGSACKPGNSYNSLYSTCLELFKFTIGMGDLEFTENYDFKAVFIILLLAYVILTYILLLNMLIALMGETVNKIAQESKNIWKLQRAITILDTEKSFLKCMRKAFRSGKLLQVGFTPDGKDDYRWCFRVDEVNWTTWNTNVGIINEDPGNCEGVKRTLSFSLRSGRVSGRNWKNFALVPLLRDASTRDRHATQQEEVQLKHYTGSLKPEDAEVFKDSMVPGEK
Kind of experiment: Functional study on vanilloid receptor 1, FLIPR Ca2+ assay in rat dorsal root ganglia cells. Format: cell-based. The conditions noted are these: for inhibition at 10 µM: read-out: VR1 (rat) (% inhibition compared to 10 μM CP); for activation at 10 µM / VR1 (rat) (% stimulation compared to 10 μM CP): Ca2+ signal relative to 10 μM capsaicin (CP); for activation at 10 µM: read-out: VR1 (rat) (% stimulation compared to 10 μM CP); for EC50: unit inferred. How it is done:
The agonistic or antagonistic action of the substances to be studied on the vanilloid receptor 1 (VR1/TRPV1) of the rat species can be determined with the following assay. In this assay, the Ca^2+ current through the receptor channel is quantified with the aid of a Ca^2+-sensitive dye (Fluo-4 type, Molecular Probes Europe BV, Leiden the Netherlands) in a fluorescent imaging plate reader (FLIPR, Molecular Devices, Sunnyvale, USA).
Complete medium: 50 ml HAMS F12 Nutrient Mixture (Gibco Invitrogen GmbH, Karlsruhe, Germany) with 10% by volume of FCS (fetal calf serum, Gibco Invitrogen GmbH, Karlsruhe, Germany, heat-inactivated);
2 mM L-glutamine (Sigma, Munich, Germany);
1% by weight of AA solution (antibiotic/antimycotic solution, PAA, Pasching, Austria) and 25 ng/ml of NGF medium (2.5 S, Gibco Invitrogen GmbH, Karlsruhe, Germany)
Cell culture plate: poly-D-lysine-coated, black 96-hole plates with a clear bottom (96 well black/clear plate, BD Biosciences, Heidelberg, Germany) are additionally coated with laminin (Gibco Invitrogen GmbH, Karlsruhe, Germany) by diluting laminin to a concentration of 100 μg/ml with PBS (Ca—Mg-free PBS, Gibco Invitrogen GmbH, Karlsruhe, Germany). Aliquots having a concentration of 100 μg/ml of laminin are withdrawn and stored at −20° C. The aliquots are diluted with PBS in a ratio of 1:10 to 10 μg/ml of laminin and in each case 50 μl of the solution are pipetted into a well of the cell culture plate. The cell culture plates are incubated at 37° C. for at least two hours, the supernatant solution is removed by suction and the wells are each washed twice with PBS. The coated cell culture plates are stored with supernatant PBS which is not removed until directly before the application of the cells.
The spinal column is removed from beheaded rats and placed directly into cold HBSS buffer (Hank's buffered saline solution, Gibco Invitrogen GmbH, Karlsruhe, Germany), i.e. placed in an ice bath, which has been admixed with 1% by volume of an AA solution (antibiotic/antimycotic solution, PAA, Pasching, Austria). The spinal column is severed longitudinally and removed from the spinal canal together with fasciae. Subsequently, the dorsal root ganglia (DRGs) are removed and in turn stored in cold HBSS buffer admixed with 1% by volume of an AA solution. The DRGs freed completely of blood residues and spinal nerves are in each case transferred to 500 μl of cold type 2 collagenase (PAA, Pasching, Austria) and incubated at 37° C. for 35 minutes. […] After complete incubation, the enzyme solution is cautiously pipetted off and the remaining DRGs are each suspended with 500 μl of complete medium.
The DRGs are each suspended repeatedly, drawn through cannulas No. 1, No. 12 and No. 16 by means of a syringe and transferred to 50 ml Falcon tubes which are made up to 15 ml with complete medium. The contents of each Falcon tube are in each case filtered through a 70 μm Falcon filter insert and centrifuged at 1200 revolutions and room temperature for 10 minutes. The resulting pellet is in each case taken up in 250 μl of complete medium and the cell count is determined.
The number of cells in the suspension is adjusted to 3 times 10^5 per ml and in each case 150 μl of this suspension are added to one well of the cell culture plates coated as described above.
Subsequently, the cells are laden with 2 μM Fluo-4 and 0.01% by volume of Pluronic F127 (Molecular Probes Europe BV, Leiden, the Netherlands) in HBSS buffer (Hank's buffered saline solution, Gibco Invitrogen GmbH, Karlsruhe, Germany) at 37° C. for 30 min, washed 3× with HBSS buffer and, after a further incubation of 15 minutes, used in the FLIPR assay at room temperature for Ca^2+ measurement. The Ca^2+-dependent fluorescence is measured before and after addition of substances (λex=488 nm, λem=540 nm). The quantification is effected by the measurement of the highest fluorescence intensity (FC, fluorescence counts) over the time.

A further experiment concerns the target T2, VR1 (human) (Homo sapiens, UniProt Q8NER1).
T2 construct: expressed in transfected cells; host or cells: CHO K1 cells (ECACC), stably transfected
As to the kind of experiment: Functional study on vanilloid receptor (VR1), FLIPR Ca2+ assay in CHO K1 cells stably transfected with the VR1 gene. The conditions noted are these: for inhibition at 10 µM / activation at 10 µM: CHO-K1, test compound 10 μM; for activation at 10 µM: read-out: VR1 (human) (% stimulation compared to 10 μM CP); for EC50: unit inferred. Format: cell-based. From the text:
The agonistic or antagonistic action of the substances to be tested on vanilloid receptor (VR1) can also be determined with the assay which follows. In this assay, the Ca^2+ current through the channel is quantified with the aid of a Ca^2+-sensitive dye (Fluo-4 type, Molecular Probes, Europe BV, Leiden, the Netherlands) in a fluorescent imaging plate reader (FLIPR, Molecular Devices, Sunnyvale, USA).
Chinese hamster ovary cells (CHO K1 cells, European Collection of Cell Cultures (ECACC) Great Britain) are transfected stably with the VR1 gene. For functional studies, these cells are plated out onto poly-D-lysine-coated black 96-well plates with a clear bottom (BD Biosciences, Heidelberg, Germany) in a density of 25 000 cells/well. The cells are incubated overnight at 37° C. and 5% CO2 in a culture medium (Ham's Nutrient Mixture F12, 10% by volume of FCS (fetal calf serum), 18 μg/ml of L-proline). The next day, the cells are incubated with Fluo-4 (Fluo-4 2 μM, Pluronic F127 0.01% by volume, Molecular Probes in HBSS (Hank's buffered saline solution), Gibco Invitrogen GmbH, Karlsruhe, Germany) at 37° C. for 30 minutes. Subsequently, the plates are washed 3 times with HBSS buffer and, after a further incubation of 15 minutes at room temperature, used for Ca^2+ measurement in FLIPR. The Ca^2+-dependent fluorescence is measured before and after addition of the substances to be studied (wavelength λex=488 nm, λem=540 nm). The quantification is effected by measuring the highest fluorescence intensity (FC, fluorescence counts) over the time.
The FLIPR protocol consists of 2 substance additions. First, the substances to be tested (10 μM) are pipetted onto the cells and the Ca current is compared with the control (capsaicin 10 μM) (% activation based on the Ca^2+ signal after addition of 10 μM capsaicin). After incubation for 5 minutes, 100 nM capsaicin is applied and the current of Ca^2+ is likewise determined.

[2] abbreviates: test compound 10 μM, 5 min incubation, then 100 nM capsaicin, relative to maximum inhibition with 10 μM capsaicin.
[3] abbreviates: 5 min incubation, then 100 nM capsaicin, compared to 10 μM CP.
[4] abbreviates: Ca2+ signal relative to 10 μM capsaicin (CP).

T2 sequence (Q8NER1 whole entry): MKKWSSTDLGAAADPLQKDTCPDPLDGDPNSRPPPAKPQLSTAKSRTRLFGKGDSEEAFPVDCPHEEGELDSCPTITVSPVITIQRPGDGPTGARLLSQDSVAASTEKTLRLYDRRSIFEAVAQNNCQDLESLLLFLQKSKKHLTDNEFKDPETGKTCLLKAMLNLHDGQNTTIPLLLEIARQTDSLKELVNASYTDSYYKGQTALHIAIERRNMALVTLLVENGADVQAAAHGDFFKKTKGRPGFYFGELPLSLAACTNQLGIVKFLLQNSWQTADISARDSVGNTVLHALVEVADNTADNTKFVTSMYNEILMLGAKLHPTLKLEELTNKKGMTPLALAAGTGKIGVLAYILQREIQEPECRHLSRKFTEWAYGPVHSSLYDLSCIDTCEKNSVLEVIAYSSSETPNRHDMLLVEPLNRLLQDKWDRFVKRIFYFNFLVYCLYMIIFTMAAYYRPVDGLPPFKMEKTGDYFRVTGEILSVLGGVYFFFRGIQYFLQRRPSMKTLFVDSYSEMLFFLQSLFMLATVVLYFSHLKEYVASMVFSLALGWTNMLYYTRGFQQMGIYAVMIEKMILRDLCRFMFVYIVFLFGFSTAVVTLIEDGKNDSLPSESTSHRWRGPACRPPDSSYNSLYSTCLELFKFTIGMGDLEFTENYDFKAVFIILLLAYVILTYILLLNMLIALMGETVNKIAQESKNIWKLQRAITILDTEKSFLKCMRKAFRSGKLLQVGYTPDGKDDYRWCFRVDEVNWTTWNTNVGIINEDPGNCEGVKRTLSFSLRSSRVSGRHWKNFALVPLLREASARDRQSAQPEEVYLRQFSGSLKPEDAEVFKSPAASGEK

As to `CC(=CC=C1SC(N2CCOCC2)=NC1=O)c1ccc(C)cc1` [Example 33, 2-morpholin-4-yl-5-(3-p-tolylbut-2-enylidene)thiazol-4-one], the results for the inhibition at 10 µM (in experiment [1] (setting [2]); against VR1 (human) (setting [3])) were 64.8% and 14.7%, respectively. The values for the activation at 10 µM (in experiment [1] (test compound 10 μM); at VR1 (human) (setting [4])) were 49.6% and 25.7%, respectively.
The matching figures for `CC(=CC=C1SC(N2CCOCC2)=NC1=O)c1ccc(C(C)(C)C)cc1` [Example 34, 5-[3-(4-tert-butylphenyl)but-2-enylidene]-2-morpholin-4-ylthiazol-4-one]: 88%, 89.3%, 101% and 111%.
`O=C1N=C(N2CCOCC2)SC1=Cc1ccc(Br)cc1` [Example 232, 5-(4-bromobenzylidene)-2-morpholin-4-ylthiazol-4-one]: the inhibition (commonly the drop in the measured response relative to a control, in per cent) at 10 µM was 96.2% in experiment [1] (setting [2]) and 43.8% at VR1 (human) (setting [3]). Further, the activation at 10 µM in experiment [1] (test compound 10 μM) was 80.4%; at VR1 (human) (setting [4]) it was 29.2%.
Regarding `CC(C)c1ccc(C=C2SC(N3CCOCC3)=NC2=O)cc1` [Example 135, 5-(4-isopropylbenzylidene)-2-morpholin-4-ylthiazol-4-one], the “VR1 (rat) (% inhibition compared to 10 μM CP)” value in experiment [1] (setting [2]) is on record as 87.60%. In experiment [1] (test compound 10 μM), the “VR1 (rat) (% stimulation compared to 10 μM CP)” value is recorded as 79.68%. Also, the “VR1 (human) (% inhibition compared to 10 μM CP)” value at VR1 (human) (test compound 10 μM, 5 min incubation, then 100 nM capsaicin, compared to 10 μM CP) is 84.29%. Moreover, the “VR1 (human) (% stimulation compared to 10 μM CP)” value at VR1 (human) (test compound 10 μM, Ca2+ signal relative to 10 μM capsaicin (CP)) turned out to be 85.02%.
Regarding `O=C1N=C(N2CCSCC2)SC1=Cc1cccc(C(F)(F)F)c1` [Example 195, 2-thiomorpholin-4-yl-5-(3-trifluoromethylbenzylidene)thiazol-4-one hydrobromide], the inhibition at 10 µM worked out at 96.1% in experiment [1] (setting [2]) and 90.3% against VR1 (human) (setting [3]). Further, the activation at 10 µM worked out at 94.3% in experiment [1] (test compound 10 μM) and 80.3% at VR1 (human) (setting [4]). Further, the EC50 (usually the midpoint of the concentration-response curve) in experiment [1] came to 2.2 µM; on VR1 (human), 5.9 µM.
As to `O=C1N=C(N2CCOCC2)SC1=Cc1cccc2ccccc12` [Example 209, 2-morpholin-4-yl-5-naphthalen-1-ylmethylenethiazol-4-one], the figures for the inhibition at 10 µM (in experiment [1] (setting [2]); against VR1 (human) (setting [3])) were 34.7% and 5.47%, respectively. The activation at 10 µM in experiment [1] (test compound 10 μM) came to 40%; at VR1 (human) (setting [4]), 9.44%. Further, the half-maximal effective concentration (EC50) in experiment [1] was 14.8 µM; on VR1 (human) it was 28.4 µM.
As for `O=C1N=C(N2CCSCC2)SC1=Cc1cccc2ccccc12` [Example 41, 5-naphthalen-1-ylmethylene-2-thiomorpholin-4-ylthiazol-4-one], the inhibition at 10 µM was 90.9% in experiment [1] (setting [2]) and 22.6% against VR1 (human) (setting [3]). For the same compound, the values for the activation at 10 µM (in experiment [1] (test compound 10 μM); at VR1 (human) (setting [4])) were 87% and 0.47%, respectively. Besides, the EC50 in experiment [1] was 5.82 µM; at VR1 (human), 10.6 µM.
Consider `O=C1N=C(N2CCOCC2)SC1=Cc1ccc(OS(=O)(=O)c2ccccc2)cc1` [Example 234, benzenesulfonic acid 4-(2-morpholin-4-yl-4-oxo-4H-thiazol-5-ylidenemethyl)phenyl ester], for which the inhibition at 10 µM in experiment [1] (setting [2]) came to 98.1%; against VR1 (human) (setting [3]), 27.8%. Besides, the activation at 10 µM came out at 57.9% in experiment [1] (test compound 10 μM) and 46.1% on VR1 (human) (setting [4]).
Take `COc1cc(C=C2SC(N3CCSCC3)=NC2=O)ccc1O` [Example 39, 5-(4-hydroxy-3-methoxybenzylidene)-2-thiomorpholin-4-ylthiazol-4-one]: the inhibition at 10 µM in experiment [1] (setting [2]) is 51%; at VR1 (human) (setting [3]), 23.7%. Besides, the activation at 10 µM in experiment [1] (test compound 10 μM) was found to be 31.2%; on VR1 (human) (setting [4]), 18.9%.
`O=C1N=C(N2CCCCC2)SC1=CC=Cc1ccccc1` [Example 191, 5-(3-phenylallylidene)-2-piperidin-1-ylthiazol-4-one hydrobromide]: the inhibition at 10 µM amounted to 17.6% in experiment [1] (setting [2]) and 8.04% on VR1 (human) (setting [3]). For the same compound, the activation at 10 µM in experiment [1] (test compound 10 μM) is -0.17%; on VR1 (human) (setting [4]), 15.8%. Moreover, the EC50 was more than 25 µM in experiment [1] and more than 50 µM on VR1 (human).
`O=C1N=C(N2CCOCC2)SC1=Cc1ccc(OC(F)(F)F)cc1` [Example 36, 2-morpholin-4-yl-5-(4-trifluoromethoxybenzylidene)thiazol-4-one]: the inhibition at 10 µM came to 101% in experiment [1] (setting [2]) and 68.8% against VR1 (human) (setting [3]). The activation at 10 µM in experiment [1] (test compound 10 μM) was determined as 67.7%; on VR1 (human) (setting [4]) it was 47.4%.
Take `O=C(NC1=NC(=O)C(=Cc2ccc(C(F)(F)F)cc2)S1)Nc1ccccc1C(F)(F)F` [Example 96, 1-[4-oxo-5-(4-trifluoromethylbenzylidene)-4,5-dihydrothiazol-2-yl]-3-(2-trifluoromethylphenyl)urea]: the inhibition at 10 µM came out at 27% in experiment [1] (setting [2]) and 54.6% at VR1 (human) (setting [3]). In addition, the results for the activation at 10 µM (in experiment [1] (test compound 10 μM); on VR1 (human) (setting [4])) were 28.5% and 5.03%, respectively.
Consider `O=C1N=C(N2CCSCC2)SC1=Cc1ccccc1` [Example 42, 5-benzylidene-2-thiomorpholin-4-ylthiazol-4-one], for which the inhibition at 10 µM stood at 93.1% in experiment [1] (setting [2]) and 50.2% against VR1 (human) (setting [3]). In addition, the activation at 10 µM in experiment [1] (test compound 10 μM) amounted to 98.3%; on VR1 (human) (setting [4]) it was 49.7%.
Take `O=C1N=C(N2CCSCC2)SC1=CC=Cc1ccccc1` [Example 25, 5-(3-phenylallylidene)-2-thiomorpholin-4-ylthiazol-4-one]: the inhibition at 10 µM in experiment [1] (setting [2]) worked out at 87.2%; against VR1 (human) (setting [3]), 37.6%. The “VR1 (rat) (% stimulation compared to 10 μM CP)” value in experiment [1] (test compound 10 μM) is 80.77%. Besides, at VR1 (human) (setting [4]), the activation at 10 µM came out at 29.1%.
